Drawing on patent publication US9073940B2, “Tricyclic pyrazol amine derivatives” (MERCK SERONO SA, priority 2009, dated 2015), this text covers IC50 for 32 compounds.

This assay relates to 4 PI3K isoforms (Human recombinant GST-PI3K). Put plainly: PI3K scintillation proximity assay, best IC50 obtained with the four isoforms (alpha, beta, delta, gamma). In kind it is biochemical. The following applies: best IC50 obtained with the four isoforms of PI3K; read-out: Best potency measured on the 4 PI3K isoforms. Background: In a scintillation proximity assay essentially only radioactivity close to the scintillant gives light.
On to `O=C(c1nn(C2CCN(CCO)CC2)c2c1CS(=O)(=O)c1ccccc1-2)N1CCOCC1` [Example 121, 2-{4-[3-(Morpholin-4-ylcarbonyl)-5,5-dioxidothiochromeno[4,3-c]pyrazol-1 (4H)-yl]piperidin-1-yl}ethanol], for which the IC50 is 1760 nM.

As to `O=C(c1nn(-c2ccccc2)c2c1CS(=O)(=O)c1cc(Br)ccc1-2)N1CCOCC1` [Example 122], the IC50 stood at 904 nM.

As for `CS(=O)(=O)N1CCC(n2nc(C(=O)N3CCOCC3)c3c2-c2ccccc2S(=O)(=O)C3)CC1` [Example 123, 1-[1-(Methylsulfonyl)piperidin-4-yl]-3-(morpholin-4-ylcarbonyl)-1,4-dihydrothiochromeno[4,3-c]pyrazole 5,5-dioxide], the IC50 turned out to be 2100 nM.

Turning to `CN1CCN(C(=O)c2cccc(-n3nc(C(=O)N4CCOCC4)c4c3-c3ccccc3S(=O)(=O)C4)c2)CC1` [Example 124, 1-{3-[(4-Methylpiperazin-1-yl)carbonyl]phenyl}-3-(morpholin-4-ylcarbonyl)-1,4-dihydrothiochromeno[4,3-c]pyrazole 5,5-dioxide], the IC50 is 253 nM.

Regarding `O=C(c1cccc(-n2nc(C(=O)N3CCOCC3)c3c2-c2ccccc2S(=O)(=O)C3)c1)N1CCCCC1` [Example 125, 3-(Morpholin-4-ylcarbonyl)-1-[3-(piperidin-1-ylcarbonyl)phenyl]-1,4-dihydrothiochromeno[4,3-c]pyrazole 5,5-dioxide], the IC50 is 182 nM.

Regarding `COCCNC(=O)c1cccc(-n2nc(C(=O)N3CCOCC3)c3c2-c2ccccc2S(=O)(=O)C3)c1` [Example 126, N-(2-Methoxyethyl)-3-[3-(morpholin-4-ylcarbonyl)-5,5-dioxidothiochromeno[4,3-c]pyrazol-1 (4H)-yl]benzamide], the IC50 came to 1110 nM.

For `CC1CCC(n2nc(C(=O)N3CCOCC3)c3c2-c2ccccc2S(=O)(=O)C3)CC1` (centres unmarked) [Example 127, 1-(4-Methylcyclohexyl)-3-(morpholin-4-ylcarbonyl)-1,4-dihydrothiochromeno[4,3-c]pyrazole 5,5-dioxide], the IC50 amounted to 426 nM.

Turning to `O=C(c1nn(C2CCCCC2)c2c1CS(=O)(=O)c1cc(Br)ccc1-2)N1CCOCC1` [Example 128, 7-Bromo-1-cyclohexyl-3-(morpholin-4-ylcarbonyl)-1,4-dihydrothiochromeno[4,3-c]pyrazole 5,5-dioxide], the IC50 stood at 691 nM.

Turning to `Cc1ccc2c(c1)-c1c(c(C(=O)N3CCOCC3)nn1-c1ccccc1)CS2(=O)=O` [Example 129, 8-Methyl-3-(morpholin-4-ylcarbonyl)-1-phenyl-1,4-dihydrothiochromeno[4,3-c]pyrazole 5,5-dioxide], the IC50 was 1500 nM.

For `CS(=O)(=O)c1ccc(-n2nc(C(=O)N3CCOCC3)c3c2-c2ccccc2S(=O)(=O)C3)cc1` [Example 130, 1-[4-(Methylsulfonyl)phenyl]-3-(morpholin-4-ylcarbonyl)-1,4-dihydrothiochromeno[4,3-c]pyrazole 5,5-dioxide], the IC50 came to 4520 nM.

Regarding `COc1ccc(-n2nc(C(=O)N3CCOCC3)c3c2-c2ccccc2S(=O)(=O)C3)cn1` [Example 131, 1-(6-Methoxypyridin-3-yl)-3-(morpholin-4-ylcarbonyl)-1,4-dihydrothiochromeno[4,3-c]pyrazole 5,5-dioxide], the IC50 amounted to 2200 nM.

With `O=C(c1nn(-c2ccccc2)c2c1CS(=O)(=O)c1ncccc1-2)N1CCOCC1` [Example 132, 3-(Morpholin-4-ylcarbonyl)-1-phenyl-1,4-dihydropyrazolo[3′,4′:4,5]thiopyrano[2,3-b]pyridine 5,5-dioxide], the IC50 amounted to 530 nM.

For the compound `COCCN1CCCC(n2nc(C(=O)N3CCOCC3)c3c2-c2ccccc2S(=O)(=O)C3)C1` (centres unmarked) [Example 133, 1-[1-(2-Methoxyethyl)piperidin-3-yl]-3-(morpholin-4-ylcarbonyl)-1,4-dihydrothiochromeno[4,3-c]pyrazole 5,5-dioxide], the IC50 turned out to be 188 nM.

On to `O=C(c1nn(C2CCCN(CCO)C2)c2c1CS(=O)(=O)c1ccccc1-2)N1CCOCC1` (centres unmarked) [Example 134, 2-{3-[3-(Morpholin-4-ylcarbonyl)-5,5-dioxidothiochromeno[4,3-c]pyrazol-1 (4H)-yl]piperidin-1-yl}ethanol], for which the IC50 was determined as 815 nM.

As to `CS(=O)(=O)N1CCCC(n2nc(C(=O)N3CCOCC3)c3c2-c2ccccc2S(=O)(=O)C3)C1` (centres unmarked) [Example 135, 1[1-(Methylsulfonyl)piperidin-3-yl]-3-(morpholin-4-ylcarbonyl)-1,4-dihydrothiochromeno[4,3-c]pyrazole 5,5-dioxide], the IC50 amounted to 994 nM.

For the compound `CS(=O)(=O)c1cccc(-n2nc(C(=O)N3CCOCC3)c3c2-c2ccccc2S(=O)(=O)C3)c1` [Example 138, 1-[3-(Methylsulfonyl)phenyl]-3-(morpholin-4-ylcarbonyl)-1,4-dihydrothiochromeno[4,3-c]pyrazole 5,5-dioxide], the IC50 was 2560 nM.

Regarding `Cc1ccc2c(c1)S(=O)(=O)Cc1c(C(=O)N3CCOCC3)nn(-c3ccccc3)c1-2` [Example 139, 7-Methyl-3-(morpholin-4-ylcarbonyl)-1-phenyl-1,4-dihydrothiochromeno[4,3-c]pyrazole 5,5-dioxide], the IC50 is 1840 nM.

With `NCCCC1c2c(C(=O)N3CCOCC3)nn(-c3ccccc3)c2-c2ccccc2S1(=O)=O` (centres unmarked) [Example 140, 3-[3-(Morpholin-4-ylcarbonyl)-5,5-dioxido-1-phenyl-1,4-dihydrothiochromeno[4,3-c]pyrazol-4-yl]propan-1-amine], the IC50 came to 4520 nM.

Regarding `O=C(c1nn(-c2cccc(CO)c2)c2c1CS(=O)(=O)c1ccccc1-2)N1CCOCC1` [Example 141, {3-[3-(Morpholin-4-ylcarbonyl)-5,5-dioxidothiochromeno[4,3-c]pyrazol-1(4H)-yl]phenyl}methanol], the IC50 was determined as 2250 nM.

As to `COC1CCN(C(=O)c2cccc(-n3nc(C(=O)N4CCOCC4)c4c3-c3ccccc3S(=O)(=O)C4)c2)CC1` [Example 142, 1-{3-[(4-Methoxypiperidin-1-yl)carbonyl]phenyl}-3-(morpholin-4-ylcarbonyl)-1,4-dihydrothiochromeno[4,3-c]pyrazole 5,5-dioxide], the IC50 was 302 nM.

Turning to `O=C(c1cccc(-n2nc(C(=O)N3CCOCC3)c3c2-c2ccccc2S(=O)(=O)C3)c1)N1CCC(O)CC1` [Example 143, 1-{3-[3-(Morpholin-4-ylcarbonyl)-5,5-dioxidothiochromeno[4,3-c]pyrazol-1 (4H)-yl]benzoyl}piperidin-4-ol], the IC50 stood at 371 nM.

For the compound `O=C(c1cccc(-n2nc(C(=O)N3CCOCC3)c3c2-c2ccccc2S(=O)(=O)C3)c1)N1CCCC(O)C1` (centres unmarked) [Example 144, 1-{3-[3-(Morpholin-4-ylcarbonyl)-5,5-dioxidothiochromeno[4,3-c]pyrazol-1 (4H)-yl]benzoyl}piperidin-3-ol], the IC50 was 348 nM.

Take `O=C(c1cccc(-n2nc(C(=O)N3CCOCC3)c3c2-c2ccccc2S(=O)(=O)C3)c1)N1CCCC(CO)C1` (centres unmarked) [Example 145, (1-{3-[3-(Morpholin-4-ylcarbonyl)-5,5-dioxidothiochromeno[4,3-c]pyrazol-1 (4H)-yl]benzoyl}piperidin-3-yl)methanol]: the IC50 was determined as 502 nM.

As for `O=C(c1cccc(-n2nc(C(=O)N3CCOCC3)c3c2-c2ccccc2S(=O)(=O)C3)c1)N1CCS(=O)(=O)CC1` [Example 146, 1-{3-[(1,1-Dioxidothiomorpholin-4-yl)carbonyl]phenyl}-3-(morpholin-4-ylcarbonyl)-1,4-dihydrothiochromeno[4,3-c]pyrazole 5,5-dioxide], the IC50 came to 319 nM.

With `O=C(c1ccc(-n2nc(C(=O)N3CCOCC3)c3c2-c2ccccc2S(=O)(=O)C3)cc1)N1CCOCC1` [Example 147, 3-(Morpholin-4-ylcarbonyl)-1-[4-(morpholin-4-ylcarbonyl)phenyl]-1,4-dihydrothiochromeno[4,3-c]pyrazole 5,5-dioxide], the IC50 amounted to 274 nM.

`O=C(NC1CCOCC1)c1cccc(-n2nc(C(=O)N3CCOCC3)c3c2-c2ccccc2S(=O)(=O)C3)c1` [Example 148, 3-[3-(Morpholin-4-ylcarbonyl)-5,5-dioxidothiochromeno[4,3-c]pyrazol-1(4H)-yl]-N-(tetrahydro-2H-pyran-4-yl)benzamide]: the IC50 came out at 1260 nM.

`O=C(Nc1cccnc1)c1cccc(-n2nc(C(=O)N3CCOCC3)c3c2-c2ccccc2S(=O)(=O)C3)c1` [Example 149, 3-[3-(Morpholin-4-ylcarbonyl)-5,5-dioxidothiochromeno[4,3-c]pyrazol-1(4H)-yl]-N-pyridin-3-ylbenzamide]: the IC50 was found to be 926 nM.

Turning to `O=C(c1nn(-c2ccccc2)c2c1CS(=O)(=O)c1ccncc1-2)N1CCOCC1` [Example 150, 3-(Morpholin-4-ylcarbonyl)-1-phenyl-1,4-dihydropyrazolo[3′,4′:4,5]thiopyrano[3,2-c]pyridine 5,5-dioxide], the IC50 came out at 3050 nM.

For the compound `O=C(c1ccc(-n2nc(C(=O)N3CCOCC3)c3c2-c2ccccc2S(=O)(=O)C3)cc1)N1CCCCC1` [Example 151, 3-(Morpholin-4-ylcarbonyl)-1-[4-(piperidin-1-ylcarbonyl)phenyl]-1,4-dihydrothiochromeno[4,3-c]pyrazole 5,5-dioxide], the IC50 stood at 238 nM.

Regarding `CN(C)c1ccc2c(c1)S(=O)(=O)Cc1c(C(=O)N3CCOCC3)nn(-c3ccccc3)c1-2` [Example 152, N,N-Dimethyl-3-(morpholin-4-ylcarbonyl)-1-phenyl-1,4-dihydrothiochromeno[4,3-c]pyrazol-7-amine 5,5-dioxide], the IC50 turned out to be 5020 nM.

`O=C(c1nn(-c2ccc(CO)cc2)c2c1CS(=O)(=O)c1ccccc1-2)N1CCOCC1` [Example 153, {4-[3-(Morpholin-4-ylcarbonyl)-5,5-dioxidothiochromeno[4,3-c]pyrazol-1(4H)-yl]phenyl}methanol]: the IC50 stood at 1060 nM.

`O=C(c1nn(-c2cccc(N3CCOCC3)c2)c2c1CS(=O)(=O)c1ccccc1-2)N1CCOCC1` [Example 154, 3-(Morpholin-4-ylcarbonyl)-1-(3-morpholin-4-ylphenyl)-1,4-dihydrothiochromeno[4,3-c]pyrazole 5,5-dioxide]: the IC50 was 673 nM.
